Source: patent publication US4092420A, “Novel soft N-chloroamino alcohol derivatives exhibiting antibacterial activity” (INTERx Research Corporation, priority 1977, dated 1978)

Experiments:
[1] = system: S. aureus; assay: Contact germicidal efficiency (sterilization time); assay type: cell-based, Staphylococcus aureus; conditions: Example Y, pH 4.6, in presence of horse serum, 468 ppm (80 PPMCl+)
Procedure: CONTACT GERMICIDAL EFFICIENCY OF
(§1) ^a Time intervals screened 0.5, 1, 2, 3, 4 and 5 minutes.
(§2) ^a Time intervals screened 0.5, 1, 2, 3, 4, 5, 6, 7, 8, 9 and 10
(§3) ^a Time intervals screened 0.5, 1, 2, 3, 4, and 5 minutes.
(§4) ^b Time intervals screened 0.5, 1, 2, 3, 4, 5, 6, 7, 8, 9 and 10
(§5) Immediately preceding the screen, the compound is weighed and diluted with a buffer or other solvent to give the final concentration desired. The buffer or solvent chosen depends on the conditions of the screen and could be one of the following: 0.1 M NaOAc, pH 4.6; 0.1 M NaH2 PO4, pH 7.0; 0.1 M Na2 B4 O7, pH 8.8; 35% methanol in one of the aforementioned buffers; 10% Triton × 100 in buffer, etc.
(§6) The positive chlorine concentration of the test solution is then determined iodometrically.
Media used for the Screen are Nutrient Broth, BBL# 11479 and Nutrient Agar, BBL# 11472 prepared according to label directions. The broth is dispensed in 75 ml amounts of flasks for overnight cultures and in 5 ml amounts to culture tubes for subculturing during the Screen. Agar plates are prepared as usual. […]
A 0.2 ml portion of the overnight culture is inoculated into 5 ml of 0.9% NaCl for use in controls. […] The earliest subculture time at which no growth is present in the subculture tube is considered the endpoint and is recorded as that time, e.g., 7 minutes. […]

[2] = system: K. pneumoniae; assay: Minimal inhibitory concentration (MIC), Example V; assay type: cell-based; conditions: Klebsiella pneumoniae
Procedure: MINIMAL INHIBITORY CONCENTRATION OF 2-AMINO-2-METHYL-1-PROPYL
^a Minimal inhibitory concentration expressed in parts per million
sequence inhibited the test organism at the higher concentrations.
THE ANTIBACTERIAL SCREEN - EXAMPLE V
Klebsiella pneumoniae ATCC# 10031
THE ANTIBACTERIAL SCREEN - EXAMPLES W - Z (Autotiter IV)
(a) Compounds. All compounds to be screened are weighed (approx. 10 mg) on the day preceding the test date. Each compound is solubilized on the day of assay in appropriate solvent and diluted automatically in the Autotiter IV with distilled water (buffer can be employed here also).
(§7) Bacteria: Staphylococcus aureas Smith (or 209), Escherichia coli AB 1932-1, 1100/B22 and Vogel, Streptococcus pyogenes C203 Salmonella typhimurium 14028, Bacillus subtilis 6051-1, Klebsiella pneumoniae 10031, Pseudomonas aeruginosa 9027, Bordetella bronchiseptica 4617 and Staphylococcus epidermidis 12228.
(c) Inocula. Prior to utilization in the Autotiter IV, all bacteria are cultured for 18-20 hr. (37° C) in tryptose phosphate broth (TP), except, S. pyogenes C203, which is cultured in Brain Heart Infusion broth plus 10% normal horse serum. Immediately prior to testing, each culture is adjusted to an optical density of 0.10 (650 nm), employing a Bausch & Lomb Spectronic 20, and diluted subsequently into double strength medium to approximately 2 × 10^5 viable organisms per ml.
1. An automated injector system dispenses 0.05 ml of diluent (sterile H2 O or buffer) to all cups of the autotiter trays from rows 2 through 7.
2. The loops (for sequential dilutions of the compounds are moistened by immersion into 70% ethyl alcohol. After removal of excess alcohol by blotting, the loops are moved to the first row of cups in the autotray containing 0.10 ml of the compound to be diluted and tested (usually, this initial concentration is 500 to 1000 mcg/ml, but can be varied upward or downward). The loops are lowered and sequentially transfer the diluted solutions of the compound through row 7.
Immediately after each dilution is made, each cup is automatically inoculated with 0.05 ml of the appropriate test organism. This inoculation derives from a second injector system containing the organism in double-strength medium. The total operation consists of the automatic dilution of a single compound in each of 8 rows of the Autotiter try.
After these operations, we reverse the tray and a second compound is diluted over the other one-half of the tray and inoculated, subsequently, with 8 organisms. Thus, for each Autotiter Tray, two compounds are screened against 8 different organisms at dilutions ranging from 1:2 to 1:128.
(e) Incubation. The inoculated Autotiter trays are incubated at 37° C for 18 - 20 hr. At the end of this period, each tray is examined for the presence or absence of growth (turbidity). The lowest concentration of the compound inhibiting growth is recorded as the minimal inhibitory concentration (MIC).

[3] = system: B. bronchiseptica; assay: Contact germicidal efficiency (sterilization time); assay type: cell-based, Bordetella bronchiseptica
Procedure: (§8) CONTACT GERMICIDAL EFFICIENCY OF N-CHLORAMINES AS A FUNCTION
as §1, §2, §3, §4, §5, §6
(§9) Media used for the Screen are Nutrient Broth, BBL# 11479 and Nutrient Agar, BBL# 11472 prepared according to label directions. The broth is dispensed in 75 ml amounts of flasks for overnight cultures and in 5 ml amounts to culture tubes for subculturing during the Screen. Agar plates are prepared as usual.
(§10) Overnight cultures are prepared by inoculating from stock cultures into the 75 ml flasks of nutrient broth and incubating for 15 hours at 37° C.
(§11) The iodometrically characterized test solution is dispensed in 5 ml amounts to seven small stoppered flasks. The organisms are screened one at a time as follows:
(§12) A 0.2 ml portion of the overnight culture is inoculated into 5 ml of 0.9% NaCl for use in controls. A 0.2 ml portion of the overnight culture is inoculated into a flask containing 5 ml of the test solution, an automatic timer is simultaneously triggered and the solution mixed. At time intervals of 30 seconds, 1, 2, 3, 4, 5, 6, 7, 8, 9, and 10 minutes a loopful of the inoculated solution is subcultured into 5 ml of sterile nutrient broth and mixed by a Vortex Genie Mixer, the high dilution serving to stop the action of the compound. At the end of the ten minute screen, the entire procedure is repeated for each of the remaining six organisms. All of the subculture tubes are incubated at 37° C and checked for signs of growth by turbidity at 24 hr., 48 hr., 3, 5, and 7 days. The earliest subculture time at which no growth is present in the subculture tube is considered the endpoint and is recorded as that time, e.g., 7 minutes.
(§13) The test solution is prepared and characterized as above but is made up at twice the concentration desired. The solution is diluted 1:1 with Rehydrated Tissue Culture Dessicated Horse Serum, Difco #5357-72 and dispensed in a 5 ml amount to a small flask. The mixture is incubated at Room Temperature for 30 minutes to allow denaturation of the compound by the serum and then screened as above.
(§14) The 5 ml mixture of serum and test solution are prepared in sequence to allow as close to 30 minutes as possible before the beginning of the screen of each organism.
as §7

[4] = system: P. aeruginosa; assay: Contact germicidal efficiency (sterilization time); assay type: cell-based, Pseudomonas aeruginosa
Procedure: as §8, §1, §2, §3, §4, §5, §6, §9, §10, §11, §12, §13, §14, §7

[5] = Example X, pH 4.6, no horse serum, IV c 404 ppm (69 PPMCl+), IV g 489 ppm (143 PPMCl+)
[6] = Example X, pH 7.0, no horse serum, IV c 1886 ppm (323 PPMCl+), IV g 409 ppm (120 PPMCl+)
[7] = Example X, pH 9.3, no horse serum, IV c 1704 ppm (292 PPMCl+), IV g 319 ppm (94 PPMCl+)
[8] = Example Y, pH 4.6, in presence of horse serum, 468 ppm (80 PPMCl+)

SMILES: CC(C)(COC(=O)C(C)(C)C)NCl [IV c, 2-N-Chloroamino-2-methyl-1-propyl 2,2-dimethylproprionate]
- Sterilization Time [1]: > 10 min
- MIC [2]: > 250 µg/mL
- Sterilization Time [3, 5]: 0.5 min
- Sterilization Time [3, 6]: 1 min
- Sterilization Time [3, 7]: 1 min
- Sterilization Time [3, 8]: > 10 min
- Sterilization Time [4, 5]: 0.5 min
- Sterilization Time [4, 6]: 1 min
- Sterilization Time [4, 7]: 1 min
- Sterilization Time [4, 8]: > 10 min
